Series [1] is described as follows: Stability in mouse plasma assessed as parent compound remaining measured after 1 hrs by TLC analysis. It is filed as ADME, cell-free. Particulars: read-out: Stability; call rule not given here.
A short description of series [2]: In vivo metabolic stability in male ddY mouse urine assessed as intact compound at 37 kBq, iv measured after 1 hrs by RP-HPLC analysis. It is filed as ADME, organism-based. Particulars: read-out: Stability.
Series [3] is described as follows: In vivo stability in male ddY mouse thyroid gland assessed as decrease in radioactivity at 37 kBq, iv measured after 10 to 240 mins by autowell-gamma counter analysis. Format: ADME, organism-based. The following applies: time 10-240 min.
Series [4] in a line: In vivo stability in male ddY mouse stomach assessed as decrease in radioactivity at 37 kBq, iv measured after 10 to 240 mins by autowell-gamma counter analysis. It is filed as ADME, organism-based. The following applies: time 10-240 min.
A short description of series [5]: Drug accumulation in male ddY mouse intestine at 37 kBq, iv measured after 10 to 240 mins by autowell-gamma counter analysis. It is filed as ADME, organism-based. The following applies: in vivo, time 10-240 min.
Series [6] is described as follows: Drug accumulation in male ddY mouse liver at 37 kBq, iv measured after 10 to 240 mins by autowell-gamma counter analysis. It is filed as ADME, organism-based. The following applies: in vivo, time 10-240 min.
The nature of series [7]: Drug accumulation in male ddY mouse kidney at 37 kBq, iv measured after 10 to 240 mins by autowell-gamma counter analysis. Format: ADME, organism-based. Particulars: in vivo, time 10-240 min.
Another series addresses Albumin (Homo sapiens, UniProt P02768). In words: Binding affinity to human serum albumin assessed as binding constant by ITC analysis. It is filed as ADME. The following applies: isolated protein.

Sequence of Albumin (P02768 whole entry): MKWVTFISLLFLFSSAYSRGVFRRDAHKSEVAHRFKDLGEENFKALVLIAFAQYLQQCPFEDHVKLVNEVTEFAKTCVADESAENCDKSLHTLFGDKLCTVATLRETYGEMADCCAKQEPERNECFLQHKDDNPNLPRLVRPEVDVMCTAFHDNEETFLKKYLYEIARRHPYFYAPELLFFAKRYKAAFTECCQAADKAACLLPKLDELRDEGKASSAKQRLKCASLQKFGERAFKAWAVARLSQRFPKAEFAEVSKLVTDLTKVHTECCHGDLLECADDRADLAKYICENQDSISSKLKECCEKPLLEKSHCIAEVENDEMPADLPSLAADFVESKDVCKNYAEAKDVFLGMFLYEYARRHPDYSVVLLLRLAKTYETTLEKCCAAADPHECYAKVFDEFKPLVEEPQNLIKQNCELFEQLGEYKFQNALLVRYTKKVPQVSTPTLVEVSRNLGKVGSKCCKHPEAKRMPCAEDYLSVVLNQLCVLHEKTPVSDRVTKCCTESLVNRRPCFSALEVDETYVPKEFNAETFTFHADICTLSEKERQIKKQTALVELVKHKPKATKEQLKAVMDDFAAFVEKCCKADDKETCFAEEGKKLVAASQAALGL

With `CN(C)C(=O)c1cc(C(=O)NCC(=O)O)cc(C(=O)N(C)C)c1[125I]`, the remaining at 1 h was 92.7% in series [1] and 75.7% in series [2]. Moreover, the Stability result in series [3] and in series [4] was “Stable” each time. Also, the Drug uptake entry in series [5], in series [6] and in series [7] was “Active” each time.
As for `O=C(O)CNC(=O)c1ccc([125I])cc1`, in series [1], the remaining at 1 h stood at 98.4%. Also, the Stability entry in series [3] and in series [4] was “Stable” each time. In addition, the Drug uptake entry in series [7] was “Active”.
For `COCOCc1cc(C(=O)NCC(=O)O)cc(COCOC)c1[211At]`, the remaining at 1 h in series [1] came out at 81.5%. Moreover, the Stability result in series [3] and in series [4] was “Unstable” each time.
For the compound `O=C(O)CNC(=O)c1ccccc1` [HIPPURIC ACID], the Kb on Albumin was 1000 M⁻¹.
Consider `CN(C)C(=O)c1cc(C(=O)NCC(=O)O)cc(C(=O)N(C)C)c1[211At]`, for which the remaining at 1 h in series [1] turned out to be 92%; in series [2], 86.4%. Moreover, the Stability result in series [3] and in series [4] was “Stable” in each case. Besides, the Drug uptake entry in series [5] and in series [6] was “Active” throughout.
Take `CN(C)C(=O)c1cc(C(=O)NCC(=O)O)ccc1[211At]`: in series [1], the remaining at 1 h was determined as 95.8%. Further, the Stability entry in series [3] and in series [4] was “Unstable” in each case.
For `CN(C)C(=O)c1cc(C(=O)NCC(=O)O)ccc1[125I]`, the remaining at 1 h in series [1] was 96.9%. Besides, the Drug uptake result in series [5], in series [6] and in series [7] was “Active” throughout.
Take `O=C(O)CNC(=O)c1cc(CO)c([211At])c(CO)c1`: the remaining at 1 h in series [1] worked out at 88.7%. The Stability entry in series [3] and in series [4] was “Unstable” in each case.
Turning to `O=C(O)CNC(=O)c1cc(CO)c([125I])c(CO)c1`, the remaining at 1 h in series [1] came to 95.8%. Also, the Stability result in series [3] and in series [4] was “Stable” throughout. For the same compound, the Drug uptake result in series [5], in series [6] and in series [7] was “Active” throughout.
With `O=C(O)CNC(=O)c1ccc([211At])cc1`, in series [1], the remaining at 1 h was 81.4%. For the same compound, the Stability result in series [3] and in series [4] was “Unstable” each time.
As to `COCOCc1cc(C(=O)NCC(=O)O)cc(COCOC)c1[125I]`, in series [1], the remaining at 1 h worked out at 92.9%. For the same compound, the Stability result in series [3] and in series [4] was “Stable” throughout.

These data come from ChEMBL document CHEMBL6096687, “In Vivo Stability Improvement of Astatobenzene Derivatives by Introducing Neighboring Substituents” (J Med Chem, 2025).
